pIC50: −log10 of the molar value. Active and inactive are the calls of the source. No cut-off for these calls is given here.

The pIC50 is the IC50 on a negative log10 scale, so that one unit is a factor of ten.

Test [1] is described as follows: Inhibition of Escherichia coli recombinant N-terminal hexahistidine-tagged CTP synthetase expressed in Escherichia coli BL21 (DE3) assessed as inhibition of CTP formation by continuous spectrophotometric assay in presence of 10 mM L-glutamine and 0.15 mM GTP. The conditions noted are these: for pIC50: read-out: IC50.
Test [2] is described as follows: Inhibition of Escherichia coli recombinant N-terminal hexahistidine-tagged CTP synthetase expressed in Escherichia coli BL21 (DE3) assessed as inhibition of CTP formation by continuous spectrophotometric assay in presence of 150 mM NH4Cl. The settings on record: for pIC50: read-out: IC50.
Test [3] in a line: Multisite inhibition of Escherichia coli recombinant N-terminal hexahistidine-tagged CTP synthetase expressed in Escherichia coli BL21 (DE3) assessed as inhibition of CTP formation in Hepes buffer at pH 8 in presence of 0.54 mM NH4Cl.
In test [4] the test system is Escherichia coli. The experiment in a line: Inhibition of Escherichia coli recombinant N-terminal hexahistidine-tagged CTP synthetase expressed in Escherichia coli BL21 (DE3) assessed as inhibition of CTP formation at 1 mM in presence of 1mM ATP.
The nature of test [5]: Multisite inhibition of Escherichia coli recombinant N-terminal hexahistidine-tagged CTP synthetase expressed in Escherichia coli BL21 (DE3) assessed as inhibition of CTP formation in Hepes buffer at pH 8 in presence of 5.44 mM NH4Cl.
Test [6] in a line: Multisite inhibition of Escherichia coli recombinant N-terminal hexahistidine-tagged CTP synthetase expressed in Escherichia coli BL21 (DE3) assessed as inhibition of CTP formation in Hepes buffer at pH 8 in presence of 8.16 mM NH4Cl.
A short description of test [7]: Multisite inhibition of Escherichia coli recombinant N-terminal hexahistidine-tagged CTP synthetase expressed in Escherichia coli BL21 (DE3) assessed as inhibition of CTP formation in Hepes buffer at pH 8 in presence of 1.36 mM NH4Cl.
The nature of test [8]: Multisite inhibition of Escherichia coli recombinant N-terminal hexahistidine-tagged CTP synthetase expressed in Escherichia coli BL21 (DE3) assessed as inhibition of CTP formation in Hepes buffer at pH 8 in presence of 2.72 mM NH4Cl.
The subject of test [9] is Escherichia coli. The experiment in a line: Inhibition of Escherichia coli recombinant N-terminal hexahistidine-tagged CTP synthetase expressed in Escherichia coli BL21 (DE3) assessed as inhibition of CTP formation at 1 mM in presence of 1mM UTP.
Test [10] can be described thus: Inhibition of Escherichia coli recombinant N-terminal hexahistidine-tagged CTP synthetase expressed in Escherichia coli BL21 (DE3) assessed as inhibition of CTP formation in TAPS buffer at pH 8.5 by continuous spectrophotometric assay in presence of 150 mM NH4Cl.
The nature of test [11]: Inhibition of Escherichia coli recombinant N-terminal hexahistidine-tagged CTP synthetase expressed in Escherichia coli BL21 (DE3) assessed as inhibition of CTP formation in Hepes buffer at pH 8 by continuous spectrophotometric assay in presence of 10 mM L-glutamine and 0.15 mM GTP.
Test [12] in a line: Inhibition of Escherichia coli recombinant N-terminal hexahistidine-tagged CTP synthetase expressed in Escherichia coli BL21 (DE3) assessed as inhibition of CTP formation in Hepes buffer at pH 8 by continuous spectrophotometric assay in presence of 150 mM NH4Cl.
Test [13] is described as follows: Inhibition of Escherichia coli recombinant N-terminal hexahistidine-tagged CTP synthetase expressed in Escherichia coli BL21 (DE3) assessed as inhibition of CTP formation in TAPS buffer at pH 8.5 by continuous spectrophotometric assay in presence of 10 mM L-glutamine and 0.15 mM GTP.

`Cn1c(=O)[nH]c2[nH]c(=O)[nH]c2c1=O`: the pIC50 in test [1] is 4.00; in test [2] it was 4.02.
As for `Cn1c(=O)c2c(ncn2C)n(C)c1=O` [CAFFEINE], the pIC50 is 3.41 in [1]; 3.36 in test [3]; 3.29 in [2]; 3.35 in [5]; 3.36 in [6]; 3.35 in test [7]. Besides, the pIC50 in test [8] was 3.38. In addition, the inhibition result in the test on Escherichia coli [4] and in the test on Escherichia coli [9] was “inactive” in each case.
With `NC(=O)NC1NC(=O)NC1=O` (stereo unspecified) [ALLANTOIN], the IC50 entry in [1] and in test [2] was “Not Active” throughout.
On to `Cn1c(=O)[nH]c2ncn(C)c2c1=O` [PARAXANTHINE], for which the pIC50 in [10] is 3.44; in test [11], 3.36; in test [12] it was 3.32; in test [13], 3.70.
In the case of `O=C(O)Cc1cc(=O)[nH]c(=O)[nH]1`, the values for the pIC50 in [1] and in test [2] were 2.59 and 2.50, respectively.
The matching figures for `Nc1[nH]cnc2ncnc1-2` [ADENINE]: 1.80 and 1.89.
As to `Nc1ncnc2c1ncn2[C@@H]1O[C@H](CO)[C@@H](O)[C@H]1O` [ADENOSINE], the pIC50 in test [2] is 1.96.
For `Cn1c(=O)[nH]c2[nH]c(=O)n(C)c2c1=O`, the pIC50 in test [10] was 3.96; in test [11] it was 3.95; in [12], 3.92; in test [13], 4.21.
The corresponding values for `Oc1nc(O)c2nc(O)[nH]c2n1` [URIC ACID] are 3.95, 4.22, 4.06 and 4.22.
With `Cn1c(=O)[nH]c(=O)c2c1[nH]c(=O)n2C`, the values for the pIC50 in test [1] and in test [2] were 4.20 and 4.05, respectively. Moreover, the inhibition result with Escherichia coli [4] and in the test on Escherichia coli [9] was “inactive” throughout.
For `O=c1[nH]c(=O)c2nc[nH]c2[nH]1` [XANTHINE], the pIC50 was 3.66 in test [10], 3.64 in [11], 3.43 in [12] and 3.80 in test [13].
Turning to `O=c1cc[nH]c(=O)[nH]1` [URACIL], the pIC50 in [1] was 2.38; in test [2] it was 2.33.
Turning to `Cn1cnc2c1c(=O)[nH]c(=O)n2C` [THEOBROMINE], the results for the pIC50 in test [1] and in test [2] were 3.38 and 3.24, respectively.
Take `Cn1c(=O)c2[nH]c(=O)[nH]c2n(C)c1=O`: the pIC50 is 4.00 in test [10], 4.06 in [11], 4.14 in test [12] and 4.19 in [13].
On to `O=c1ccn([C@@H]2O[C@H](CO)[C@@H](O)[C@H]2O)c(=O)[nH]1` [URIDINE], for which the results for the pIC50 in test [1] and in test [2] were 2.51 and 2.34, respectively.
The matching figures for `Cn1c(=O)c2c([nH]c(=O)n2C)n(C)c1=O`: 4.17 and 4.15.
The corresponding values for `Cn1c(=O)c2c(n(C)c1=O)n(C)c(=O)n2C` are 4.10 and 3.92.
Take `Cn1c(=O)c2nc[nH]c2n(C)c1=O` [THEOPHYLLINE]: the pIC50 is 3.40 in [10], 3.37 in test [11], 3.26 in test [12] and 3.52 in test [13].
